Assay results published in US6387925B1, “Polymorphs of a crystalline azo-bicyclo (2.2.2) oct-3-yl amine citrate and their pharmaceutical compositions” (Pfizer Inc., priority 1999, dated 2002).
Entries after “also recorded” stand apart in the source; their conditions may differ. Structures can show the parent of a compound that is named as a salt. Where two headings read alike, the source gives them in different places.

Assay: Hygroscopicity measurements
Type: physicochemical
Conditions: for water absorbed (hygroscopicity): at 90% RH
Method: Anhydrous citrate synthesis was carried out by adding 1.1 equivalents citric acid to a stirred slurry of the free base in isopropanol (15 volumes) at room temperature. The resulting solution was stirred and monitored by differential scanning calorimetry and after all the free base had reacted (18 hours), the anhydrous citrate salt was obtained as a white crystalline solid by filtration and drying under house vacuum at 45° C. with nitrogen purge (83% yield). […] The crystalline habits frequently encountered are microcrystalline flakes. The most intense reflections, d spacings, observed by X-ray powder diffraction were 17.608, 10.953, 8.782, 7.956, 7.371, 6.802, 6.571, 5.866, 5.462, 4.907, 4.415, 4.188, 3.635 and 3.512Å.
The resulting citrate monohydrate salt, Form A, was compared to an authentic sample and characterized via PLM, X-ray powder diffraction, proton NMR, Karl Fisher, DSC and elemental analysis. […] The two crystalline habits having similar refractograms encountered were plates and needles. The needle habit was as a result of different rate of growth of the crystal faces in water whereas in isopropanol/water more even growth of crystal faces produced plates. The most intense reflections, d spacings, observed by X-ray powder diffraction were 17.730, 10.928, 9.651, 8.253, 6.707, 5.981, 5.666, 5.450, 4.833, 4.488, and 3.646Å. […] Elemental analysis validated the purity of the salt synthesized.

COc1ccc(C(C)C)cc1CN[C@H]1C2CCN(CC2)[C@H]1C(c1ccccc1)c1ccccc1 [anhydrous citrate salt, (2-Benzhydryl-1-azo-bicyclo[2.2.2]oct-3-yl)-(5-isopropyl-2-methoxybenzyl)-amine citrate]
hygroscopicity (in words): nonhygroscopic | water absorbed (hygroscopicity): 1.11 % wt./wt.

COc1ccc(C(C)C)cc1CNC1C2CCN(CC2)C1C(c1ccccc1)c1ccccc1.O.O=C(O)CC(O)(CC(=O)O)C(=O)O (stereo not shown) [Form A]
water absorbed (hygroscopicity): 2.44 % wt./wt. | hygroscopicity (in words) (citrate monohydrate): hygroscopically stable; also recorded: lack of hygroscopicity
